Molecular target: T1, olTRPM2 (Oryzias latipes, UniProt H2MNZ1)
T1 sequence (H2MNZ1 1-1431): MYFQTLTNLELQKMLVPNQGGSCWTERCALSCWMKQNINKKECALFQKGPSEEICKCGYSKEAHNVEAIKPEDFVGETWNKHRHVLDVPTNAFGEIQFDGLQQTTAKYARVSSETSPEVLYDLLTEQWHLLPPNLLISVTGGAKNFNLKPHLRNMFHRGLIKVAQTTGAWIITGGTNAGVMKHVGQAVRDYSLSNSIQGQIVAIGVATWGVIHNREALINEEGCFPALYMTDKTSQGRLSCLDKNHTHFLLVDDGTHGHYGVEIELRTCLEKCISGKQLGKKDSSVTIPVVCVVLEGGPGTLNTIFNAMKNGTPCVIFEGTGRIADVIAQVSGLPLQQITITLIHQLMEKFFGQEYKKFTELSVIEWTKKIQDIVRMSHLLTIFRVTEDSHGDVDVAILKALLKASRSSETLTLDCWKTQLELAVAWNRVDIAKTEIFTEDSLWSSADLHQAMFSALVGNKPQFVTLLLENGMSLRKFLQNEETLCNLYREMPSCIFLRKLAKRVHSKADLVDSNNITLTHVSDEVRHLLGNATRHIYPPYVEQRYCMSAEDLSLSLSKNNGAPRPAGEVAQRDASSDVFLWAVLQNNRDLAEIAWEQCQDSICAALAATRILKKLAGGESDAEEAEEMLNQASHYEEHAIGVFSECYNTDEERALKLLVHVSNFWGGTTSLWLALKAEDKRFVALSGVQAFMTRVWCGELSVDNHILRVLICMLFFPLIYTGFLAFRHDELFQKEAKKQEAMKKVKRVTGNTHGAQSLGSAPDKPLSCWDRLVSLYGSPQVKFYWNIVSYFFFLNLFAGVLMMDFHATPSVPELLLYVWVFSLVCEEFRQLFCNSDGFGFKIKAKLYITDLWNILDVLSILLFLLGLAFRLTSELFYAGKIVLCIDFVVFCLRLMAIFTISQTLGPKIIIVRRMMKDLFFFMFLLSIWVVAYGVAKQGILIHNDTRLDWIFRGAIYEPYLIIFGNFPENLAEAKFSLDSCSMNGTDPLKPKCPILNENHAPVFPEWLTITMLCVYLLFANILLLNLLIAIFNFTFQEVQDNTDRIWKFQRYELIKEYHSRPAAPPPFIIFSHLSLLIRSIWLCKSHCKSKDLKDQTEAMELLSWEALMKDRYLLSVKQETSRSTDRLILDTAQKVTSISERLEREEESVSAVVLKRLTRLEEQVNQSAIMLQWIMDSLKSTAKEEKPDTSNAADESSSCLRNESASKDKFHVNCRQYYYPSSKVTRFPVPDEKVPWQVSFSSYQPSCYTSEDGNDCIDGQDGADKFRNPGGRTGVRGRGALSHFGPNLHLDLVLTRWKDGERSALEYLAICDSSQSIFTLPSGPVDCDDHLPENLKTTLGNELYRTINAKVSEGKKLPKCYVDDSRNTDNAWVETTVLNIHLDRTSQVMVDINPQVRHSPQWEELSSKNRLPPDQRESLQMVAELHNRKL
Experiment: whole-cell patch clamp, HEK293T
Assay type: cell-based
Conditions: intracellular ADPR; room temperature; pH 7.4; -80 mV; agonist

EC50: 1100 ± 800 nM
Structure (SMILES): Nc1ncnc2c1ncn2[C@@H]1O[C@H](COP(=O)(O)OP(=O)(O)OC[C@H]2OC(O)[C@H](O)[C@@H]2O)[C@@H](O)[C@H]1O (stereo partly shown) [ADPR, adenosine diphosphate ribose]
